# Measurements reported in patent publication US20170348269A1, “TREATMENT OF UREA CYCLE DISORDERS IN NEONATES AND INFANTS” (Horizon Therapeutics, LLC, priority 2016, published 2017).
# Key:
# Assay type in all cases: in vivo, human
# [1] = tested on: blood ammonia in pediatric patients with UCDs; assay: HPN-100-012 open-label fixed sequence switch-over study, blood ammonia control
# Text: HPN-100-012, an open-label, fixed sequence, switch-over study of the safety, PK and efficacy of HPN-100 compared to NaPBA in patients with UCDs, with a 12-month safety extension part. […] After review of all the safety data by the DSMB, 8 additional subjects were enrolled in the study after the switch-over phase was completed. The primary efficacy endpoint was the 24-hour AUC (area under the curve) for blood ammonia on Day 1 compared with Day 10.
# [2] = HPN-100-005 pharmacokinetics of HPN-100 and NaPBA in pediatric UCD patients; settings: HPN-100-005 (N = 11)
# Text: (§1) The pharmacokinetics of the short term studies can be summarized as follows. Mean exposure levels of HPN-100 metabolites PBA, PAA, and PAGN after doses of HPN-100 and NaPBA with meals (TID) in pediatric (29 days to 17 years of age) UCD patients in HPN-100-005 and HPN-100-012 studies are summarized below. The mean exposure to PBA, the parent metabolite, and mean exposure to PAGN, the terminal metabolite, show no systematic variation across age groups, while PAA exposure tended to decrease with increasing age, a finding consistent with those from population PK modeling which indicate that the rate of clearance/metabolism of PAA varies directly with body size. While systemic metabolite exposure, assessed as peak plasma concentration (Cmax) or AUC, is generally similar for HPN-100 and NaPBA, the minimum concentration (Cmin-ss) was higher—and/or percent-fluctuation less—for plasma PAGN, a finding consistent with slower gastrointestinal absorption of PBA when administered orally as HPN-100.
# [3] = HPN-100-012 switch-over study, pharmacokinetics of HPN-100 and NaPBA in pediatric UCD patients; settings: HPN-100-012 (N = 15), TID with meals, arithmetic mean
# Procedure: HPN-100-012, an open-label, fixed sequence, switch-over study of the safety, PK and efficacy of HPN-100 compared to NaPBA in patients with UCDs, with a 12-month safety extension part. The switch-over part of the study and the 12-month safety extension are complete. The switch-over part was conducted at 7 U.S. centers and enrolled 15 pediatric UCD patients between 29 days and <6 year of age, all of whom completed the study. After review of all the safety data by the DSMB, 8 additional subjects were enrolled in the study after the switch-over phase was completed. The primary efficacy endpoint was the 24-hour AUC (area under the curve) for blood ammonia on Day 1 compared with Day 10.
# as §1
# [4] = pediatric UCD patients, TID with meals, arithmetic mean
smiles,measurement,setting,value
"O=C([O-])CCCc1ccccc1.[Na+] [NaPBA, sodium phenylbutyrate]",Mean blood ammonia at the 12-hour time point,"[1]; HPN-100 Day 10, NaPBA Day 1, highest value for both treatments",41.03 µmol/L
same,Mean blood ammonia at the 24-hour time point,"[1]; NaPBA Day 1, lowest value on NaPBA",34.66 µmol/L
same,Plasma PAA CLss/F,[2]; [4],34391 mL/min
same,Plasma PBA CLss/F,[2]; [4],145463 mL/min
same,Plasma PAA Cmin-ss,"[2]; pediatric UCD patients, TID with meals, arithmetic mean (CV %)",674 ng/mL
same,U-PAGN Ae0-12,"[2]; urinary PAGN excreted 0-12 h, arithmetic mean",7098020 µg
same,U-PAGN Ae12-24,"[2]; urinary PAGN excreted 12-24 h, arithmetic mean",5414406 µg
same,U-PAGN Ae,"[2]; urinary PAGN excreted, arithmetic mean",12512426 µg
same,Plasma PAA % Fluctuation,[3],1289%
same,Plasma PAA AUC0-24,[3],1458 µg·h/mL
same,Plasma PAA CLss/F,[3],94249 mL/min
same,Plasma PAGN CLss/F,[3],14360 mL/min
same,Plasma PBA CLss/F,[3],112093 mL/min
same,Plasma PBA Cmin-ss,[3],993 ng/mL
